Experimental findings from patent US8106197B2, “Aminoheteroaryl compounds as protein kinase inhibitors” (Pfizer Inc., priority 2003, dated 2012) are described below.

This test addresses T1, HGFR (Homo sapiens, UniProt P08581).
T1 construct: purchased Upstate 14-526
The test can be described thus: HGFR continuous-coupled spectrophotometric assay. Format: biochemical. As to conditions: for I(%): Table 3, Ki(μM) or I(%), test concentration not given; for inhibition at 1 µM: Table 6, percent c-MET inhibition at 1 μM, read-out: % inhibition; for inhibition at 0.05 µM: Table 5, percent c-MET inhibition at 50 nM.

T1 sequence (P08581 974-1390 limits assumed): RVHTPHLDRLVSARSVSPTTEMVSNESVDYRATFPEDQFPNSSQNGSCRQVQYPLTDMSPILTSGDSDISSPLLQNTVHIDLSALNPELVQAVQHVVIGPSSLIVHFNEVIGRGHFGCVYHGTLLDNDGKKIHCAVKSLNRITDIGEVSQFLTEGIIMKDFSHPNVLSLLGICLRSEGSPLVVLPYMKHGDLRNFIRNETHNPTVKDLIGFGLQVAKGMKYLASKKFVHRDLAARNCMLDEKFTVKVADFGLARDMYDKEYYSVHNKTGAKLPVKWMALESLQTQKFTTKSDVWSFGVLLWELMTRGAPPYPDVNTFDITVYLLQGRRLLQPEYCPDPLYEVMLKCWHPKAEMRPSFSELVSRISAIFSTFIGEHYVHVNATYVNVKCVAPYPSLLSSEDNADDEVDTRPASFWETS

Consider `COc1cccc(OC)c1-c1cnc(N)c(OC(C)c2c(Cl)ccc(F)c2Cl)c1` (centres unmarked) [Example I-558, 3-[1-(2,6-Dichloro-3-fluoro-phenyl)-ethoxy]-5-(2,6-dimethoxy-phenyl)-pyridin-2-ylamine], for which the “I(%)” value was found to be 2%.

As to `Nc1ncc(-c2ccc(C(=O)N3CCC(N4CCCC4)CC3)cc2)cc1OCc1nnnn1Cc1ccccc1`, the “% inhibition” value is “% inhibition = 19”.

Turning to `Nc1ncc(C(=O)N2CCC3(CC2)CC(N2CCNC(=O)C2)CO3)cc1OCc1c(Cl)cccc1Cl` (centres unmarked), the inhibition at 1 µM was found to be 17%.

Consider `Nc1ncc(C(=O)N2CCNC(=O)CC2)cc1OCc1c(Cl)cccc1Cl`, for which the inhibition at 1 µM came to 31%.

In the case of `Cc1[nH]cnc1COc1cc(-c2ccc(C(=O)N3CCC(N4CCCC4)CC3)cc2)cnc1N`, the “% inhibition” value is “% inhibition = 12”.

In turn, `COC(=O)C(CO)NC(=O)c1ccc(-c2cnc(N)c(OC(C)c3c(Cl)ccc(F)c3Cl)c2)cc1` (centres unmarked) registered an inhibition at 0.05 µM of 81%.

As to `Cc1cc(C)n2nc(COc3cc(-c4ccc(C(=O)N5CCC(N6CCCC6)CC5)cc4)cnc3N)nc2n1`, the “% inhibition” value is on record as “% inhibition = 18”.

Regarding `Nc1ncc(-c2ccc(C(=O)N3CCC(N4CCCC4)CC3)cc2)cc1OCc1cc(-c2ccccc2)no1`, the “% inhibition” value is recorded as “% inhibition = 23”.

Regarding `COC(=O)Nc1cc(COc2cc(-c3ccc(C(=O)N4CCC(N5CCCC5)CC4)cc3)cnc2N)on1`, the “% inhibition” value was “% inhibition = 18”.

As to `Cc1noc(C)c1-c1nc(COc2cc(-c3ccc(C(=O)N4CCC(N5CCCC5)CC4)cc3)cnc2N)no1`, the “% inhibition” value is reported as “% inhibition = 6”.

Regarding `Nc1ncc(-c2ccc(C(=O)N3CCC(N4CCCC4)CC3)cc2)cc1OCc1nccn1Cc1ccccc1`, the “% inhibition” value is “% inhibition = 8”.

Regarding `COc1ccccc1-c1nc(COc2cc(-c3ccc(C(=O)N4CCC(N5CCCC5)CC4)cc3)cnc2N)c(C)o1`, the “% inhibition” value is recorded as “% inhibition = 19”.

Regarding `Nc1ncc(C(=O)N[C@@H]2c3ccccc3C[C@@H]2O)cc1OCc1c(Cl)cccc1Cl`, the inhibition at 1 µM was 23%.

For the compound `Cc1noc([C@H]2CC[C@H](CNC(=O)c3cnc(N)c(OCc4c(Cl)cccc4Cl)c3)CC2)n1`, the inhibition at 1 µM was determined as 3%.

Take `Nc1ncc(-c2ccc(C(=O)N3CCC(N4CCCC4)CC3)cc2)cc1OCc1cc(C(F)(F)F)ccc1Cl`: the “% inhibition” value is “% inhibition = 26”.

In the case of `Cn1ccnc1SCC1(O)CCCN(C(=O)c2cnc(N)c(CCc3c(Cl)cccc3Cl)c2)CC1` (centres unmarked), the inhibition at 1 µM was 35%.

`CC(Oc1cc(CNC2CCN(Cc3ccccc3)C2)cnc1N)c1c(Cl)ccc(F)c1Cl` (centres unmarked) [Example I-608, 5-[(1-Benzyl-pyrrolidin-3-ylamino)-methyl]-3-[1-(2,6-dichloro-3-fluoro-phenyl)-ethoxy]-pyridin-2-ylamine]: the “I(%)” value came to 0%.

Take `Nc1ncc(C(=O)NCc2ccc(S(N)(=O)=O)cc2)cc1OCc1c(Cl)cccc1Cl`: the inhibition at 1 µM was determined as 30%.

`CC(C)CC(NC(=O)c1cnc(N)c(OCc2c(Cl)cccc2Cl)c1)C(N)=O` (centres unmarked): the inhibition at 1 µM was found to be 40%.

Turning to `Nc1ncc(C(=O)NCc2ccc(F)cc2Cl)cc1OCc1c(Cl)cccc1Cl`, the inhibition at 1 µM was determined as 37%.

As for `N#Cc1ccccc1-c1ccc(COc2cc(-c3ccc(C(=O)N4CCC(N5CCCC5)CC4)cc3)cnc2N)cc1`, the “% inhibition” value is “% inhibition = 77”.

As to `CC(CCCC(C)(C)O)NC(=O)c1cnc(N)c(OCc2c(Cl)cccc2Cl)c1` (centres unmarked), the inhibition at 1 µM stood at 35%.

For the compound `Nc1ncc(C(=O)N2CCC(COc3cccc4cccnc34)C2)cc1OCc1c(Cl)cccc1Cl` (centres unmarked), the inhibition at 1 µM is 35%.

`CCOC(=O)CCNC(=O)c1cccc(COc2cc(-c3ccc(C(=O)N4CCC(N5CCCC5)CC4)cc3)cnc2N)c1`: the “% inhibition” value is reported as “% inhibition = 14”.

Consider `Nc1ncc(-c2ccc(C(=O)N3CCC(N4CCCC4)CC3)cc2)cc1OCc1cscn1`, for which the “% inhibition” value is “% inhibition = 12”.

As to `COc1ccnc(COc2cc(-c3ccc(C(=O)N4CCC(N5CCCC5)CC4)cc3)cnc2N)c1OC`, the “% inhibition” value is reported as “% inhibition = 23”.

Take `Cc1cc(CCC2COC3(CCN(C(=O)c4cnc(N)c(OCc5c(Cl)cccc5Cl)c4)CC3)C2)no1` (centres unmarked): the inhibition at 1 µM is 19%.

For the compound `Nc1ncc(-c2ccc(C(=O)N3CCC(N4CCCC4)CC3)cc2)cc1OCc1ccc(S(=O)(=O)Nc2ccc(F)cc2)cc1`, the “% inhibition” value is on record as “% inhibition = 15”.

For the compound `Cc1ccn2cc(COc3cc(-c4ccc(C(=O)N5CCC(N6CCCC6)CC5)cc4)cnc3N)nc2c1`, the “% inhibition” value is “% inhibition = 18”.

Turning to `Nc1ncc(-c2ccc(C(=O)N3CCC(N4CCCC4)CC3)cc2)cc1OCc1ccc(S(=O)(=O)N2CCOCC2)cc1`, the “% inhibition” value is “% inhibition = 14”.

Turning to `COC(=O)c1cccc(COc2cc(-c3ccc(C(=O)N4CCC(N5CCCC5)CC4)cc3)cnc2N)c1` [Example I-625, 3-{2-Amino-5-[4-(4-pyrrolidin-1-yl-piperidzne-1-carbonyl)-phenyl]-pyridin-3-yloxymethyl)-benzoic acid methyl ester], the “I(%)” value is 6%.

As for `Nc1ncc(C(=O)NCCc2cccc(O)c2)cc1OCc1c(Cl)cccc1Cl`, the inhibition at 1 µM was found to be 17%.

As to `Cc1oc(-c2ccc(F)cc2)nc1COc1cc(-c2ccc(C(=O)N3CCC(N4CCCC4)CC3)cc2)cnc1N`, the “% inhibition” value is recorded as “% inhibition = 17”.

Consider `CNC(=O)c1ccc(OC)c(-c2noc(OCc3cc(-c4ccc(C(=O)N5CCC(N6CCCC6)CC5)cc4)cnc3N)n2)c1`, for which the “% inhibition” value is “% inhibition = 11”.

For `Nc1ncc(C(=O)N2CCN(CCCN3CCOCC3)CC2)cc1OCc1c(Cl)cccc1Cl`, the inhibition at 1 µM was found to be 40%.

On to `NC(=O)C1CCCN(C(=O)c2cnc(N)c(OCc3c(Cl)cccc3Cl)c2)C1` (centres unmarked), for which the inhibition at 1 µM worked out at 39%.

Regarding `Nc1ncc(C(=O)NCCc2c[nH]c3ccc(O)cc23)cc1OCc1c(Cl)cccc1Cl`, the inhibition at 1 µM worked out at 29%.

Turning to `CS(=O)(=O)CCN1CCN(C(=O)c2cnc(N)c(OCc3c(Cl)cccc3Cl)c2)CC1`, the inhibition at 1 µM is 25%.

Take `CC(Oc1cc(-c2ccc(C(=O)N3CCC(Cc4ccccc4)C3)cc2)cnc1N)c1c(Cl)ccc(F)c1Cl` (centres unmarked): 0.05 µM produced 59% inhibition.

For `CC1CN(C(=O)c2ccc(-c3cnc(N)c(OCc4c(F)cccc4F)c3)cc2)CC(C)N1` (centres unmarked) [Example I-620, {4-[6-Amino-5-(2,6-difluoro-benzyloxy)-pyridin-3-yl]-phenyl}-(3,5-dimethyl-piperazin-1-yl)-methanone], the “I(%)” value is listed as 5%.

Take `Nc1ncc(-c2ccc(C(=O)N3CCC(N4CCCC4)CC3)cc2)cc1OCc1ccc(C(F)(F)F)cc1F`: the “% inhibition” value is “% inhibition = 25”.

Consider `CC(C)(O)c1ccc(CNC(=O)c2cnc(N)c(OCc3c(Cl)cccc3Cl)c2)cc1`, for which the inhibition at 1 µM was 24%.

Consider `Nc1ncc(-c2ccc(C(=O)N3CCC(N4CCCC4)CC3)cc2)cc1OCc1cc(F)ccc1Br`, for which the “% inhibition” value is “% inhibition = 24”.

Take `Nc1ncc(C(=O)N2CCC3(CC2)COC(CCc2cc(O)n[nH]2)C3)cc1OCc1c(Cl)cccc1Cl` (centres unmarked): the inhibition at 1 µM is 34%.

`Nc1ncc(-c2ccc(C(=O)N3CCC(N4CCCC4)CC3)cc2)cc1OCc1ccc(C(F)(F)F)c(F)c1`: the “% inhibition” value is listed as “% inhibition = 24”.

As to `CC(NC(=O)c1cnc(N)c(OCc2c(Cl)cccc2Cl)c1)c1ccc(O)cc1` (centres unmarked), the inhibition at 1 µM is 36%.

`CC(Oc1cc(-c2ccccc2OC(F)(F)F)cnc1N)c1c(Cl)ccc(F)c1Cl` (centres unmarked) [Example I-561, 3-[1-(2,6-Didiloro-3-fluoro-phenyl)-ethoxy]-5-(2-trifluoromethoxy-phenyl)-pyridin-2-ylamine]: the “I(%)” value is reported as 14%.
